# Measured values published in patent publication US10059701B2 (Merck Patent GmbH, priority 2015, dated 2018).
# Experiments:
# [1] = target: T1, IRAK1 (Homo sapiens, UniProt P51617); test: IRAK1 enzymatic assay (ADP-Glo luminescence); format: biochemical; conditions: purified human recombinant His-TEV-IRAK1 (194-712)
# T1 construct: His-TEV-IRAK1 (194-712); His (N); TEV cleavage site (N)
# Outline: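 Luminescent ADP-Glo read-out of ATP turnover by purified His-TEV-IRAK1 (194-712) at 0.3 μg/ml after a 2-hour RT reaction. Compounds, serially diluted from 10 μM to 0.5 nM, were preincubated with enzyme 15 minutes in Hepes pH 7.0 buffer with MgCl2, DTT, EGTA and Triton X-100.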
# [2] = target: T2, IRAK4 (Homo sapiens, UniProt Q9NWZ3); test: IRAK4 enzymatic assay (ADP-Glo luminescence); format: biochemical; conditions: purified human recombinant His-TEV-IRAK4 (1-460), ATP 2 μM
# T2 construct: His-TEV-IRAK4 (1-460); His (N); TEV cleavage site (N)
# T2 sequence (Q9NWZ3 1-460): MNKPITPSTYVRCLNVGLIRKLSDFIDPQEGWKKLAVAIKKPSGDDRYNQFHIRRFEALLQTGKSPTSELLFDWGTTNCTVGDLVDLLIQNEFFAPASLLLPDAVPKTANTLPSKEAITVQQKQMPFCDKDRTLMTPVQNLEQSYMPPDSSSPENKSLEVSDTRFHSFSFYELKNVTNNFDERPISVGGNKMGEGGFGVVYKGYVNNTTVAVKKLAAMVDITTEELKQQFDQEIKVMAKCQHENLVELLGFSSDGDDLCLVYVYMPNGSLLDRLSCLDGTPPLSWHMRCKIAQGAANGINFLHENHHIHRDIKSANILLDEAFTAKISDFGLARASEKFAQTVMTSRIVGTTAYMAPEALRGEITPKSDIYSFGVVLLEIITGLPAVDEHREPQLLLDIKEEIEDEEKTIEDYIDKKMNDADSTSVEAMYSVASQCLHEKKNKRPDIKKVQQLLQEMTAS
# Outline: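 ADP-Glo luminescence read-out after a 2 h RT kinase reaction with 2 μM ATP and 300 nM biotinylated STK1 peptide. Enzyme (His-TEV-IRAK4 1-460, 0.3 μg/ml) first incubated 15 min with serially diluted compounds (10 μM–0.5 nM) in 50 mM Hepes pH 7.0, 10 mM MgCl2, 5 mM MnCl2.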
# T1 sequence (P51617 194-712): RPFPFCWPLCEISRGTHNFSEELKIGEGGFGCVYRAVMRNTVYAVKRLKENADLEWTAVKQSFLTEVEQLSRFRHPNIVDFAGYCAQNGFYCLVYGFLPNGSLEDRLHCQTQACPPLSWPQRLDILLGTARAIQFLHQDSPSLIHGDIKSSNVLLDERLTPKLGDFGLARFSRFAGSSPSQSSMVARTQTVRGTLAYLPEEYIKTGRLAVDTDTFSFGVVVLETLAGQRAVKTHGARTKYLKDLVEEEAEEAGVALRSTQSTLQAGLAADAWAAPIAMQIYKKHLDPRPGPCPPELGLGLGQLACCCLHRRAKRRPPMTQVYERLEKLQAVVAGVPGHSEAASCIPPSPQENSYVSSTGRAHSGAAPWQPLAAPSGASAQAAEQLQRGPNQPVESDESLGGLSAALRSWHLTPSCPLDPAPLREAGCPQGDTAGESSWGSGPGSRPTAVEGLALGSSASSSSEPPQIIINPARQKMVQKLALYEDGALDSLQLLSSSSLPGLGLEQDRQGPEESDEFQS
IC50 [1],IC50 [2],SMILES
100 to 1000 nM,≤ 100 nM,"NC(=O)[C@H]1CC[C@@H](n2/c(=N/C(=O)c3cccc(C(F)(F)F)c3)[nH]c3cc(N4CCOCC4=O)ccc32)CC1 [Compound 150, (E)-N-(1-((1s,4s)-4-carbamoylcyclohexyl)-5-(3-oxomorpholino)-1H-benzo[d]imidazol-2(3H)-ylidene)-3-(trifluoromethyl)benzamide]"
≤ 100 nM,≤ 100 nM,"O=C(/N=c1\[nH]c2cc(N3CCOCC3=O)ccc2n1CCCO)c1cccc(SC(F)(F)F)c1 [Compound 151, (E)-N-(1-(3-hydroxypropyl)-5-(3-oxomorpholino)-1H-benzo[d]imidazol-2(3H)-ylidene)-3-((trifluoromethyl)thio)benzamide]"
≤ 100 nM,≤ 100 nM,"O=C(/N=c1\[nH]c2cc(N3CCOCC3=O)ccc2n1CCCO)c1cccc(S(=O)(=O)C(F)(F)F)c1 [Compound 152, (E)-N-(1-(3-hydroxypropyl)-5-(3-oxomorpholino)-1H-benzo[d]imidazol-2(3H)-ylidene)-3-((trifluoromethyl)sulfonyl)benzamide]"
≤ 100 nM,≤ 100 nM,"Cn1ccc(-c2cccc(C(=O)/N=c3\[nH]c4cc(N5CCOCC5=O)ccc4n3CCCO)c2)cc1=O [Compound 153, (E)-N-(1-(3-hydroxypropyl)-5-(3-oxomorpholino)-1H-benzo[d]imidazol-2(3H)-ylidene)-3-(1-methyl-2-oxo-1,2-dihydropyridin-4-yl)benzamide]"
> 1000 nM,100 to 1000 nM,"O=C1C[C@H](n2/c(=N/C(=O)c3cccc(C(F)(F)F)c3)[nH]c3cc(N4CCCOC4=O)ccc32)CN1 [Compound 154, (S,E)-N-(5-(2-oxo-1,3-oxazinan-3-yl)-1-(5-oxopyrrolidin-3-yl)-1H-benzo[d]imidazol-2(3H)-ylidene)-3-(trifluoromethyl)benzamide]"
100 to 1000 nM,≤ 100 nM,"O=C(/N=c1\[nH]c2cc(N3CCCOC3=O)ccc2n1CC1CCOCC1)c1cccc(C(F)(F)F)c1 [Compound 155, (E)-N-(5-(2-oxo-1,3-oxazinan-3-yl)-1-((tetrahydro-2H-pyran-4-yl)methyl)-1H-benzo[d]imidazol-2(3H)-ylidene)-3-(trifluoromethyl)benzamide]"
100 to 1000 nM,≤ 100 nM,"O=C(/N=c1\[nH]c2cc(N3CCCOC3=O)ccc2n1C1CC(F)(F)C1)c1cccc(C(F)(F)F)c1 [Compound 156, (E)-N-(1-(3,3-difluorocyclobutyl)-5-(2-oxo-1,3-oxazinan-3-yl)-1H-benzo[d]imidazol-2(3H)-ylidene)-3-(trifluoromethyl)benzamide]"
≤ 100 nM,≤ 100 nM,"O=C(/N=c1\[nH]c2cc(N3CCCOC3=O)ccc2n1C1CCS(=O)(=O)C1)c1cccc(C(F)(F)F)c1 (stereo not drawn) [Compound 157, (E)-N-(1-(1,1-dioxidotetrahydrothiophen-3-yl)-5-(2-oxo-1,3-oxazinan-3-yl)-1H-benzo[d]imidazol-2(3H)-ylidene)-3-(trifluoromethyl)benzamide]"
100 to 1000 nM,≤ 100 nM,"O=C(/N=c1\[nH]c2cc(N3CCCOC3=O)ccc2n1CC1COC1)c1cccc(C(F)(F)F)c1 [Compound 158, (E)-N-(1-(oxetan-3-ylmethyl)-5-(2-oxo-1,3-oxazinan-3-yl)-1H-benzo[d]imidazol-2(3H)-ylidene)-3-(trifluoromethyl)benzamide]"
100 to 1000 nM,≤ 100 nM,"O=C(/N=c1\[nH]c2cc(N3CCCOC3=O)ccc2n1CC1COC1)c1cccc(C(F)F)c1 [Compound 159, (E)-3-(difluoromethyl)-N-(1-(oxetan-3-ylmethyl)-5-(2-oxo-1,3-oxazinan-3-yl)-1H-benzo[d]imidazol-2(3H)-ylidene)benzamide]"
100 to 1000 nM,≤ 100 nM,"O=C(/N=c1\[nH]c2cc(N3CCCOC3=O)ccc2n1CC1CCCCO1)c1cccc(C(F)F)c1 (stereo not drawn) [Compound 160, (E)-3-(difluoromethyl)-N-(5-(2-oxo-1,3-oxazinan-3-yl)-1-((tetrahydro-2H-pyran-2-yl)methyl)-1H-benzo[d]imidazol-2(3H)-ylidene)benzamide]"
≤ 100 nM,≤ 100 nM,"N#Cc1cccc(C(=O)/N=c2\[nH]c3cc(N4CCCOC4=O)ccc3n2CC2CCCCO2)c1 (stereo not drawn) [Compound 161, (E)-3-cyano-N-(5-(2-oxo-1,3-oxazinan-3-yl)-1-((tetrahydro-2H-pyran-2-yl)methyl)-1H-benzo[d]imidazol-2(3H)-ylidene)benzamide]"
≤ 100 nM,≤ 100 nM,"O=C(/N=c1\[nH]c2cc(N3CCCOC3=O)ccc2n1CC1(O)CCCC1)c1cccc(C(F)(F)F)c1 [Compound 162, (E)-N-(1-((1-hydroxycyclopentyl)methyl)-5-(2-oxo-1,3-oxazinan-3-yl)-1H-benzo[d]imidazol-2(3H)-ylidene)-3-(trifluoromethyl)benzamide]"
100 to 1000 nM,≤ 100 nM,"O=C(/N=c1\[nH]c2cc(N3CCOCC3=O)ccc2n1CCCO)c1cccc(-c2ccn(CC(F)(F)F)c(=O)c2)c1 [Compound 163, (E)-N-(1-(3-hydroxypropyl)-5-(3-oxomorpholino)-1H-benzo[d]imidazol-2(3H)-ylidene)-3-(2-oxo-1-(2,2,2-trifluoroethyl)-1,2-dihydropyridin-4-yl)benzamide]"
100 to 1000 nM,≤ 100 nM,"O=C(/N=c1\[nH]c2cc(N3CCOCC3=O)ccc2n1CCCO)c1cccc(-c2ccn(C(F)F)c(=O)c2)c1 [Compound 164, (E)-3-(1-(difluoromethyl)-2-oxo-1,2-dihydropyridin-4-yl)-N-(1-(3-hydroxypropyl)-5-(3-oxomorpholino)-1H-benzo[d]imidazol-2(3H)-ylidene)benzamide]"
100 to 1000 nM,100 to 1000 nM,"CN1CCC(n2/c(=N/C(=O)c3cccc(C(F)F)c3)[nH]c3cc(N4CCOCC4=O)ccc32)CC1 [Compound 165, (E)-3-(difluoromethyl)-N-(1-(1-methylpiperidin-4-yl)-5-(3-oxomorpholino)-1H-benzo[d]imidazol-2(3H)-ylidene)benzamide]"
> 1000 nM,≤ 100 nM,"O=C(O)CCn1/c(=N/C(=O)c2cccc(C(F)(F)F)c2)[nH]c2cc(N3CCOCC3=O)ccc21 [Compound 166, (E)-3-(5-(3-oxomorpholino)-2-((3-(trifluoromethyl)benzoyl)imino)-2,3-dihydro-1H-benzo[d]imidazol-1-yl)propanoic acid]"
> 1000 nM,> 1000 nM,"O=C(O)Cn1/c(=N/C(=O)c2cccc(C(F)(F)F)c2)[nH]c2cc(N3CCOCC3=O)ccc21 [Compound 167, (E)-2-(5-(3-oxomorpholino)-2-((3-(trifluoromethyl)benzoyl)imino)-2,3-dihydro-1H-benzo[d]imidazol-1-yl)acetic acid]"
> 1000 nM,≤ 100 nM,"O=C(O)CCCn1/c(=N/C(=O)c2cccc(C(F)(F)F)c2)[nH]c2cc(N3CCCOC3=O)ccc21 [Compound 168, (E)-4-(5-(2-oxo-1,3-oxazinan-3-yl)-2-((3-(trifluoromethyl)benzoyl)imino)-2,3-dihydro-1H-benzo[d]imidazol-1-yl)butanoic acid]"
> 1000 nM,≤ 100 nM,"O=C(O)CCCn1/c(=N/C(=O)c2cccc(C(F)F)c2)[nH]c2cc(N3CCCOC3=O)ccc21 [Compound 169, (E)-4-(2-((3-(difluoromethyl)benzoyl)imino)-5-(2-oxo-1,3-oxazinan-3-yl)-2,3-dihydro-1H-benzo[d]imidazol-1-yl)butanoic acid]"
> 1000 nM,≤ 100 nM,"O=C(/N=c1\[nH]c2cc(N3CCCOC3=O)ccc2n1C1CCC1)c1cccc(C(F)(F)F)c1 [Compound 170, (E)-N-(1-cyclobutyl-5-(2-oxo-1,3-oxazinan-3-yl)-1H-benzo[d]imidazol-2(3H)-ylidene)-3-(trifluoromethyl)benzamide]"
> 1000 nM,≤ 100 nM,"O=C(/N=c1\[nH]c2cc(N3CCCOC3=O)ccc2n1C1CCCC1)c1cccc(C(F)(F)F)c1 [Compound 171, (E)-N-(1-cyclopentyl-5-(2-oxo-1,3-oxazinan-3-yl)-1H-benzo[d]imidazol-2(3H)-ylidene)-3-(trifluoromethyl)benzamide]"
> 1000 nM,≤ 100 nM,"O=C(/N=c1\[nH]c2cc(N3CCCOC3=O)ccc2n1C1CC1)c1cccc(C(F)(F)F)c1 [Compound 172, (E)-N-(1-cyclopropyl-5-(2-oxo-1,3-oxazinan-3-yl)-1H-benzo[d]imidazol-2(3H)-ylidene)-3-(trifluoromethyl)benzamide]"
100 to 1000 nM,≤ 100 nM,"CC(C)(C)Cn1/c(=N/C(=O)c2cccc(C(F)(F)F)c2)[nH]c2cc(N3CCCOC3=O)ccc21 [Compound 173, (E)-N-(1-neopentyl-5-(2-oxo-1,3-oxazinan-3-yl)-1H-benzo[d]imidazol-2(3H)-ylidene)-3-(trifluoromethyl)benzamide]"
